Common to all, as to format: functional, organism-based
For assay [1], the system named is Mus musculus. The assay can be described thus: Hepatoprotective activity in CDAHFD induced C57BL/6N mouse liver injury model assessed as decrease in triglyceride level at 15 mg/kg,po qd administration for 4 weeks.
Assay [2] deals with Mus musculus. The assay can be described thus: Hepatoprotective activity in CDAHFD induced C57BL/6N mouse liver injury model assessed as effect on AST level at 15 mg/kg,po qd administration for 4 weeks.
Assay [3] relates to Mus musculus. The experiment in a line: Hepatoprotective activity in CDAHFD induced C57BL/6N mouse liver injury model assessed as effect on ALT level at 15 mg/kg,po qd administration for 4 weeks.
The subject of assay [4] is Mus musculus. The assay can be described thus: Hepatoprotective activity in CDAHFD induced C57BL/6N mouse liver injury model assessed as effect on HDL level at 15 mg/kg,po qd administration for 4 weeks.
The test system of assay [5] is Mus musculus. The experiment in a line: Hepatoprotective activity in CDAHFD induced C57BL/6N mouse liver injury model assessed as decrease in total cholesterol at 15 mg/kg,po qd administration for 4 weeks.
Assay [6] has as its system Mus musculus. The assay can be described thus: Hepatoprotective activity in CDAHFD induced C57BL/6N mouse liver injury model assessed as effect on ALP level at 15 mg/kg,po qd administration for 4 weeks.
In assay [7] the test system is Mus musculus. The experiment in a line: Hepatoprotective activity in CDAHFD induced C57BL/6N mouse liver injury model assessed as effect on total bilirubin level at 15 mg/kg,po qd administration for 4 weeks.
For assay [8], the system named is Mus musculus. The assay can be described thus: Hepatoprotective activity in CDAHFD induced C57BL/6N mouse liver injury model assessed as effect on LDH level at 15 mg/kg,po qd administration for 4 weeks.
Assay [9] deals with Mus musculus. The assay can be described thus: Hepatoprotective activity in CDAHFD induced C57BL/6N mouse liver injury model assessed as effect on LDL level at 15 mg/kg,po qd administration for 4 weeks.
Assay [10] relates to Mus musculus. The experiment in a line: Hepatoprotective activity in CDAHFD induced C57BL/6N mouse liver injury model assessed as effect on glucose level at 15 mg/kg,po qd administration for 4 weeks.

Activity calls are given as the source filed them. No cut-off for these calls is given here.

As to `CC[C@H]1[C@@H](O)[C@@H]2[C@H](CC[C@]3(C)[C@@H]([C@H](C)CCC(=O)O)CC[C@@H]23)[C@@]2(C)CC[C@@H](O)C[C@@H]12`, the outcome in assay [1], in assay [5] and in [10] was Active. Moreover, the result in assay [2], in [3], in assay [4], in assay [6], in assay [7] and in assay [8] was inactive. In assay [9], the outcome was inactive.
